# Biological target: A2A adenosine receptor (Homo sapiens, UniProt P29274)
# Experiment: Human Ki of the compound tables
# Assay type: binding
# Details: receptor subtype not given
# Chain of A2A adenosine receptor (P29274 whole entry): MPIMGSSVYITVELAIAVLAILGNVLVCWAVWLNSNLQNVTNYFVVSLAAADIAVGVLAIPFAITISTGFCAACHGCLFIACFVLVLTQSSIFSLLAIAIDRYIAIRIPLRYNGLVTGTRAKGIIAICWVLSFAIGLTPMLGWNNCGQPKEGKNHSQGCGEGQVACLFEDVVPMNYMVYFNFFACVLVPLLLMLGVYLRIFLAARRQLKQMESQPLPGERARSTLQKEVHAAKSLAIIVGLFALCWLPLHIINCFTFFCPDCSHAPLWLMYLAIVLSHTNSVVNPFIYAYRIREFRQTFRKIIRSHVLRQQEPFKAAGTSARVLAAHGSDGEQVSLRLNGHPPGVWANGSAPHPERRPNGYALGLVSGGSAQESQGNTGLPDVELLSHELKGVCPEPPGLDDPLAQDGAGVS
row,Ki,SMILES
1,< 100 nM,"C#CCn1cnc2c(N)nc(C#CC3(O)CC4CCC3C4)nc21 (single isomer, unassigned) [Compound 60, 2-{2-[Hydroxy-norbornan-2-yl]ethyn-1-yl}-9-propargyladenine]"
2,< 100 nM,"C#CCn1cnc2c(N)nc(C#CC3(O)CC4CCC3C4)nc21 (single isomer, unassigned) [Compound 61, 2-{2-[Hydroxy-norbornan-2-yl]ethyn-1-yl}-9-propargyladenine]"
3,< 100 nM,"C[C@@H]1CCC[C@@](O)(C#Cc2nc(N)c3ncn(CC4CC4)c3n2)C1 [Compound 1, 9-Cyclopropylmethyl-2-{2-[1(S)-hydroxy-3(R)-methyl-1-cyclohexyl]ethyn-1-yl}adenine]"
4,< 100 nM,"C[C@@H]1CCC[C@@](O)(C#Cc2nc(N)c3ncn(CC#N)c3n2)C1 [Compound 4, 9-Acetonitrile-2-{2-[1(S)-hydroxy-3(R)-methyl-1-cyclohexyl]ethyn-1-yl}adenine]"
5,< 100 nM,"Cc1noc(C)c1Cn1cnc2c(N)nc(C#C[C@]3(O)CCC[C@@H](C)C3)nc21 [Compound 8, 9-(3,5-Dimethyl-isoxazol-4-ylmethyl)-2-{2-[1(S)-hydroxy-3(R)-methyl-1-cyclohexyl]ethyn-1-yl}adenine]"
6,< 500 nM,C[C@@H]1CCC[C@@](O)(C#Cc2nc(N)c3ncn(CC#Cc4cccs4)c3n2)C1 [Compound 10]
7,< 100 nM,"CCCn1cnc2c(NC(CC)CC)nc(C#C[C@]3(O)CCC[C@@H](C)C3)nc21 [Compound 12, 2-{2-[1(S)-Hydroxy-3(R)-methyl-1-cyclohexyl]ethyn-1-yl}-N6-(3-pentyl)-9-propyladenine]"
8,< 500 nM,"CCC(CC)Nc1nc(C#C[C@]2(O)CCC[C@@H](C)C2)nc2c1ncn2CC(C)C [Compound 13, 9-Isobutyl-2-{2-[1(S)-hydroxy-3(R)-methyl-1-cyclohexyl]ethyn-1-yl}-N6-(3-pentyl)adenine]"
9,< 100 nM,"CCC(CC)Nc1nc(C#C[C@]2(O)CCC[C@@H](C)C2)nc2c1ncn2CC1CC1 [Compound 14, 9-Cyclopropylmethyl-2-{2-[1(S)-hydroxy-3(R)-methyl-1-cyclohexyl]ethyn-1-yl}-N6-(3-pentyl)adenine]"
10,< 100 nM,"CCC(CC)Nc1nc(C#C[C@]2(O)CCC[C@@H](C)C2)nc2c1ncn2C1CCCC1 [Compound 15, 9-Cyclopentyl-2-{2-[1(S)-hydroxy-3(R)-methyl-1-cyclohexyl]ethyn-1-yl}-N6-(3-pentyl)adenine]"
11,< 100 nM,"C=CCn1cnc2c(NC(CC)CC)nc(C#C[C@]3(O)CCC[C@@H](C)C3)nc21 [Compound 16, 9-Allyl-2-{2-[1(S)-hydroxy-3(R)-methyl-1-cyclohexyl]ethyn-1-yl}-N6-(3-pentyl)adenine]"
12,< 100 nM,"C#CCCCn1cnc2c(NC(CC)CC)nc(C#C[C@]3(O)CCC[C@@H](C)C3)nc21 [Compound 18, 2-{2-[1(S)-Hydroxy-3(R)-methyl-1-cyclohexyl]ethyn-1-yl}-N6-(3-pentyl)-9-(pent-4-yne)adenine]"
13,< 100 nM,"CCC(CC)Nc1nc(C#C[C@]2(O)CCC[C@@H](C)C2)nc2c1ncn2CCO [Compound 19, 9-(2-Hydroxyethyl)-2-{2-[1(S)-hydroxy-3(R)-methyl-1-cyclohexyl]ethyn-1-yl}-N6-(3-pentyl)adenine]"
14,< 500 nM,"CCC(CC)Nc1nc(C#C[C@]2(O)CCC[C@@H](C)C2)nc2c1ncn2CCCO [Compound 20, 2-{2-[1(S)-Hydroxy-3(R)-methyl-1-cyclohexyl]ethyn-1-yl}-9-(3-hydroxypropyl)-N6-(3-pentyl)adenine]"
15,< 500 nM,"CCC(CC)Nc1nc(C#C[C@]2(O)CCC[C@@H](C)C2)nc2c1ncn2CC1OCCO1 [Compound 22, 9-([1,3]-Dioxolan-2-ylmethyl)-2-{2-[1(S)-hydroxy-3(R)-methyl-1-cyclohexyl]ethyn-1-yl}-N6-(3-pentyl)adenine]"
16,< 500 nM,"CCOC(=O)Cn1cnc2c(NC(CC)CC)nc(C#C[C@]3(O)CCC[C@@H](C)C3)nc21 [Compound 25, 9-(Acetic acid ethyl ester)-2-{2-[1(S)-hydroxy-3(R)-methyl-1-cyclohexyl]ethyn-1-yl}-N6-(3-pentyl)adenine]"

# Reference: patent US7217702B2, “Selective antagonists of A2A adenosine receptors” (Adenosine Therapeutics, LLC, priority 2004, dated 2007)
